According to ChEMBL document CHEMBL4130363, “Synthesis and pharmacological evaluation of benzamide derivatives as potent and selective sigma-1 protein ligands” (Eur J Med Chem, 2017):

Key:
[1] = molecular target: Glutamate [NMDA] receptor (Homo sapiens) (UniProt Q05586+Q12879+Q13224+O15399+O60391+Q14957+Q8TCU5); experiment: Antagonist activity at recombinant human NMDA receptor assessed as inhibition of agonist-induced cAMP levels at 10 uM; format: protein-complex assay
[2] = molecular target: T1, Neuropeptide Y receptor type 1 (Homo sapiens) (UniProt P25929); experiment: Antagonist activity at recombinant human NPY1R assessed as inhibition of agonist-induced cAMP levels at 10 uM by HTRF assay; format: functional
T1 sequence (whole entry): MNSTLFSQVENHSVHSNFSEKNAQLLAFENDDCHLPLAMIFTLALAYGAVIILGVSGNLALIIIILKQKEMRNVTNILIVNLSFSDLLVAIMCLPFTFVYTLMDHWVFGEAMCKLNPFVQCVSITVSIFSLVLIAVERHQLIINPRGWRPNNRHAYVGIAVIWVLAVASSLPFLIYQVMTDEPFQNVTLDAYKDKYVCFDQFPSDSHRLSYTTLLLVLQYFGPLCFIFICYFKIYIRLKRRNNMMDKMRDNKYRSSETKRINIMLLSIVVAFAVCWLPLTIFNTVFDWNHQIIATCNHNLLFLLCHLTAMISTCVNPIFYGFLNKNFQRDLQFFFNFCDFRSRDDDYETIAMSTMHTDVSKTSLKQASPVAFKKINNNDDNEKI

[3] = test system: S1R (sigma-1 receptor); experiment: Selectivity index, ratio of IC50 for human SH-SY5Y cells to Ki for S1R in human Jurkat cell membranes; format: toxicity, cell-based
[4] = molecular target: Delta-type opioid receptor (Homo sapiens) (UniProt P41143); experiment: Antagonist activity at human delta-type opioid receptor assessed as inhibition of agonist-induced effect at 10 uM by GTPgamma[35S] binding-based assay; format: functional
[5] = molecular target: 5-hydroxytryptamine receptor 7 (Homo sapiens) (UniProt P34969); experiment: Antagonist activity at recombinant human 5-HT7R assessed as inhibition of agonist-induced cAMP induction at 10 uM by HTRF assay; format: functional
[6] = molecular target: Vasopressin V1a receptor (Homo sapiens) (UniProt P37288); experiment: Antagonist activity at recombinant human V1A receptor assessed as inhibition of agonist-induced effect at 10 uM by aequorin reporter based assay; format: functional
[7] = test system: SH-SY5Y; experiment: Cytotoxicity against human SH-SY5Y cells assessed as reduction in cell viability after 72 hrs by MTT assay; format: cell-based
[8] = molecular target: Cannabinoid receptor 1 (Homo sapiens) (UniProt P21554); experiment: Antagonist activity at recombinant human CB1 receptor assessed as inhibition of agonist-induced cAMP induction at 10 uM by HTRF assay; format: functional
[9] = molecular target: T2, Endothelin-1 receptor (Homo sapiens) (UniProt P25101); experiment: Antagonist activity at recombinant human ETA receptor assessed as inhibition of agonist induced effect at 10 uM by aequorin reporter based assay; format: functional
T2 sequence (whole entry): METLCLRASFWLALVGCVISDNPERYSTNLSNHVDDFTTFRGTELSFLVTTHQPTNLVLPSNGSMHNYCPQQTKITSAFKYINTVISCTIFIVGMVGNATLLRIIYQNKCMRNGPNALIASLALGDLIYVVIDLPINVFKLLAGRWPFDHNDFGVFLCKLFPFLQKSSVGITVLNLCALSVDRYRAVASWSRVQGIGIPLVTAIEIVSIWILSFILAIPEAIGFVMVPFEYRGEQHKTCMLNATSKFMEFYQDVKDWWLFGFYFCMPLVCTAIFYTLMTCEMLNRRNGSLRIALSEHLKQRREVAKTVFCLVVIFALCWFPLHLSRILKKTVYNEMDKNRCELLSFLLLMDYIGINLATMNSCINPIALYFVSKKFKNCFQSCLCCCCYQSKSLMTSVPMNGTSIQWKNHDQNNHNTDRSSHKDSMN

[10] = molecular target: T3, Vasoactive intestinal polypeptide receptor 1 (Homo sapiens) (UniProt P32241); experiment: Antagonist activity at recombinant human VPAC1 receptor assessed as inhibition of agonist-induced effect at 10 uM by aequorin reporter based assay; format: functional
T3 sequence (whole entry): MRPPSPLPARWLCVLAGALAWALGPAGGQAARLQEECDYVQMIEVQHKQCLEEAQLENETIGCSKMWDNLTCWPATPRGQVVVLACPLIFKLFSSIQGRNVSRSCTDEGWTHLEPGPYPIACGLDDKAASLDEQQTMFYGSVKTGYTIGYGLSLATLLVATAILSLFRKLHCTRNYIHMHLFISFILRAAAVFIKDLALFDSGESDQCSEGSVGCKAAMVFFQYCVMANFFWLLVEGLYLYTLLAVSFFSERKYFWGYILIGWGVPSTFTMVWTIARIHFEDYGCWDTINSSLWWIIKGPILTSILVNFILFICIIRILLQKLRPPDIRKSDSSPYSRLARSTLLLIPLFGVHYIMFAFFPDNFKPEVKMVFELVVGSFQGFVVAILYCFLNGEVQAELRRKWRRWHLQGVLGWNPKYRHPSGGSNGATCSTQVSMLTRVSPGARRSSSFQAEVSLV

[11] = molecular target: Mu-type opioid receptor (Homo sapiens) (UniProt P35372); experiment: Antagonist activity at human mu-type opioid receptor assessed as inhibition of agonist-induced effect at 10 uM by GTPgamma[35S] binding-based assay; format: functional
[12] = molecular target: T4, Type-1 angiotensin II receptor (Homo sapiens) (UniProt P30556); experiment: Antagonist activity at recombinant human AT1 receptor assessed as inhibition of agonist-induced […] reporter based assay; format: functional
T4 sequence (whole entry): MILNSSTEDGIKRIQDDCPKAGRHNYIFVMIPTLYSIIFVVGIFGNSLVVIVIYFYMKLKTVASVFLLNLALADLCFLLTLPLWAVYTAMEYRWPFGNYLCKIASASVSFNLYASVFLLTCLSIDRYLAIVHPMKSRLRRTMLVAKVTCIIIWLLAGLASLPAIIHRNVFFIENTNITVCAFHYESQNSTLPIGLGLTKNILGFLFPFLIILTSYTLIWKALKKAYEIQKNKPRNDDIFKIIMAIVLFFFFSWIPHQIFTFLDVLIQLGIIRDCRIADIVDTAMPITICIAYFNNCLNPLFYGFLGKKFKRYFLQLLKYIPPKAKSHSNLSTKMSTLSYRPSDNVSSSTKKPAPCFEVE

[13] = molecular target: T5, Adenosine receptor A3 (Homo sapiens) (UniProt P0DMS8); experiment: Antagonist activity at recombinant human adenosine A3 receptor assessed as inhibition of agonist-induced cAMP induction at 10 uM by HTRF assay; format: functional
T5 sequence (whole entry): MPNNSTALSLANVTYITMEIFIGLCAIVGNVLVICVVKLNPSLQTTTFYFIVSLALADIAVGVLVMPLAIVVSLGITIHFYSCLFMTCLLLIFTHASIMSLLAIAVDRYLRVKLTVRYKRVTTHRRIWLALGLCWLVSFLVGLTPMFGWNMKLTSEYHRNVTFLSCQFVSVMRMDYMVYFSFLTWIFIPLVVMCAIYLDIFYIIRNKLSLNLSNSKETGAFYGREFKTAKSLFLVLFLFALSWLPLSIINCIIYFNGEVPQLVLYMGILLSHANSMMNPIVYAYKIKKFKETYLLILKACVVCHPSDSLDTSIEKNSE

Sequence of 5-hydroxytryptamine receptor 7 (Homo sapiens) (P34969 whole entry): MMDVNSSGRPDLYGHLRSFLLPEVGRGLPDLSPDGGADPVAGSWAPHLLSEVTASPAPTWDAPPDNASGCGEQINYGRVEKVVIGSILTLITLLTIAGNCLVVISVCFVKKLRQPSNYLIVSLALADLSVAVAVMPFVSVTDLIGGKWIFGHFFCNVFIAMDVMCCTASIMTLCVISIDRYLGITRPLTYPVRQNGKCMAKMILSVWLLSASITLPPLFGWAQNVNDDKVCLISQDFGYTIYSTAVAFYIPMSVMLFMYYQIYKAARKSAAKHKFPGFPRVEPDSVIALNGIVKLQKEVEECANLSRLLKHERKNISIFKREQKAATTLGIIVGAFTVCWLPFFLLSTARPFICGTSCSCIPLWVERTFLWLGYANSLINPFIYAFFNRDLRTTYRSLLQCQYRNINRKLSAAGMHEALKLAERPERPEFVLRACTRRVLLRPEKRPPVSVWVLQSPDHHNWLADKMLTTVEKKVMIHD
Sequence of Delta-type opioid receptor (Homo sapiens) (P41143 whole entry): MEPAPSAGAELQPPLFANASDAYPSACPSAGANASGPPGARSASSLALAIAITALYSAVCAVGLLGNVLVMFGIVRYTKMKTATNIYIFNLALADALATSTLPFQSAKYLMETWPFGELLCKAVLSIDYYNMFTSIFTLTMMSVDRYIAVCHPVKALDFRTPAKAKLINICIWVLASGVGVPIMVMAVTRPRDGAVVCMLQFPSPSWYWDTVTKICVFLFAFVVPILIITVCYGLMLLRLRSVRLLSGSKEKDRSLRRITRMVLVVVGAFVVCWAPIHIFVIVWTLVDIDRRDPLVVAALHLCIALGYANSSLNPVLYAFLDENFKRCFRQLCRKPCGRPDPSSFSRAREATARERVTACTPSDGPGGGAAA
Sequence of Cannabinoid receptor 1 (Homo sapiens) (P21554 whole entry): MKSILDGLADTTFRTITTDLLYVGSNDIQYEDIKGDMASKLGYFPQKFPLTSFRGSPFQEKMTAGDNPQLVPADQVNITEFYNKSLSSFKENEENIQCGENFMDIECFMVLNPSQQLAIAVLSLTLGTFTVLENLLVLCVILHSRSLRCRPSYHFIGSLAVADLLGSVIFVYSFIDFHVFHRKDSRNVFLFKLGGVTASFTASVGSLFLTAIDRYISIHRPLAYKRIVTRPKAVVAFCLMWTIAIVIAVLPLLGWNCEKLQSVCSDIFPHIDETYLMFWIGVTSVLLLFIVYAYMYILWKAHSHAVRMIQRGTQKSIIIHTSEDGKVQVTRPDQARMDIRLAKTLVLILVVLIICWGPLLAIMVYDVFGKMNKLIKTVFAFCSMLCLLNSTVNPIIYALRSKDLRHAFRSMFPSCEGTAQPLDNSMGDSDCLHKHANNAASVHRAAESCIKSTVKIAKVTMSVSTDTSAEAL
Sequence of Vasopressin V1a receptor (Homo sapiens) (P37288 whole entry, looked up): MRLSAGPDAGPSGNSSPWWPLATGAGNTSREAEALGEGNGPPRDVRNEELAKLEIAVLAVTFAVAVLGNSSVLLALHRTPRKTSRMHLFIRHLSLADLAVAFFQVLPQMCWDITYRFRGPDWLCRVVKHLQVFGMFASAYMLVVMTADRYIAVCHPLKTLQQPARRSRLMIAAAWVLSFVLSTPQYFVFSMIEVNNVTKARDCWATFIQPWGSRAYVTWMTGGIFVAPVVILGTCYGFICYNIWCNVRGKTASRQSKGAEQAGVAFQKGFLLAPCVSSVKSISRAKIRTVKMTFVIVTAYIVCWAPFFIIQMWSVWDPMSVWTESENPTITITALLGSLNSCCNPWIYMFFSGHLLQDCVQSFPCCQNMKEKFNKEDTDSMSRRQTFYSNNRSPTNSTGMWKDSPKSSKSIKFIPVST
Sequence of Mu-type opioid receptor (Homo sapiens) (P35372 whole entry): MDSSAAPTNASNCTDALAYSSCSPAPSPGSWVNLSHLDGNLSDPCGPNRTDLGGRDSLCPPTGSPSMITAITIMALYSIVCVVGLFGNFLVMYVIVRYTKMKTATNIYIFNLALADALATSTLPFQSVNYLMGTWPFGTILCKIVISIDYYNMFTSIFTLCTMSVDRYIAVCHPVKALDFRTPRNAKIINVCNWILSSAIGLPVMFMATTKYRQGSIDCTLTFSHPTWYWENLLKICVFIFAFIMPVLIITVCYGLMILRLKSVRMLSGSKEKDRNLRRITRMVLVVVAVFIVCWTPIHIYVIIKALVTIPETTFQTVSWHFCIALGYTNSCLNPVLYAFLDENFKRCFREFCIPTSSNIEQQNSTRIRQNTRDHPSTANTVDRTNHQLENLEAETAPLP

| SMILES | inhibition [1] | inhibition [2] | selectivity ratio [3] | inhibition [4] | inhibition [5] | inhibition [6] | IC50 [7] | inhibition [8] | inhibition [9] | inhibition [10] | inhibition [11] | inhibition [12] | inhibition [13] |
| --- | --- | --- | --- | --- | --- | --- | --- | --- | --- | --- | --- | --- | --- |
| CN(CCCNC(=O)c1cccc(Br)c1)Cc1ccccc1 | 5% | -5% | > 25600 | 7% | -4% | 14% | > 100 µM | 3% | -9% | 31% | 29% | 7% | – |
| CN(CCCNC(=O)c1ccc(Br)cc1)Cc1ccccc1 | 5% | -3% | – | -5% | 0% | 0% | – | -2% | – | 4% | -9% | – | 24% |
| COc1cccc(C(=O)NCCCN(C)Cc2ccccc2)c1 | 0% | 3% | – | – | -3% | 3% | – | -5% | 5% | 1% | 20% | 20% | – |
| CN(CCNC(=O)c1ccc(Cl)cc1)Cc1ccccc1 | 4% | -1% | > 27800 | 18% | – | 18% | > 100 µM | 4% | -9% | 30% | – | 21% | -1% |
| CCCc1ccc(C(=O)NCCCN(C)Cc2ccccc2)cc1 | 15% | -7% | – | -5% | 2% | 11% | – | 4% | – | 0% | -4% | -6% | 8% |
| CN(CCCNC(=O)c1ccc(C(F)(F)F)cc1)Cc1ccccc1 | 14% | – | – | – | -9% | 6% | – | 10% | 2% | 31% | -1% | -2% | 18% |
| CN(CCCNC(=O)c1ccc([N+](=O)[O-])cc1)Cc1ccccc1 | 12% | 6% | – | 5% | – | 6% | – | 5% | 0% | 0% | -6% | 17% | -7% |
| CN(CCCNC(=O)c1ccc(Cl)cc1)CCc1ccccc1 | 16% | -1% | > 23300 | 6% | – | 36% | > 100 µM | 1% | – | 17% | 9% | 11% | 10% |
| CN(CCNC(=O)c1ccc(C#N)cc1)Cc1ccccc1 | 1% | -2% | > 83300 | 0% | -2% | 9% | > 100 µM | – | 6% | 3% | 9% | – | -6% |
| COc1ccc(C(=O)NCCCN(C)Cc2ccccc2)cc1 | – | 1% | – | -2% | -5% | -9% | – | -8% | -1% | – | 20% | -10% | 12% |
| CN(CCCNC(=O)c1ccc(Cl)cc1)Cc1ccccc1 | 8% | -4% | > 31200 | 9% | -1% | – | > 100 µM | 5% | -5% | 7% | 8% | -3% | 16% |
| CN(CCNC(=O)c1ccc([N+](=O)[O-])cc1)Cc1ccccc1 | 3% | -1% | > 27800 | 8% | -2% | 6% | > 100 µM | – | – | 22% | 15% | – | 5% |
